Experimental data as given in ChEMBL document CHEMBL1667830, “Non-oxime inhibitors of B-Raf(V600E) kinase” (Bioorg Med Chem Lett, 2011).
pIC50: −log10 of the molar value.

Assays:
[1] = biological target: Serine/threonine-protein kinase B-raf (Homo sapiens, UniProt P15056, V600E); assay: Inhibition of B-Raf V600E mutant
[2] = AUC (0 to infinity) in mouse at 25 mg/kg, po; type: ADME, organism-based; parameters: time infinity, dose 25 mg/kg, route oral; conditions: plasma
[3] = Permeability across human Caco2 cells; type: ADME, cell-based; conditions: Caco-2, read-out: permeability
[4] = Cmax in mouse at 25 mg/kg, po; type: ADME, organism-based; parameters: dose 25 mg/kg, route oral; conditions: in vivo

Serine/threonine-protein kinase B-raf, sequence (P15056 2-766 V600E limits assumed): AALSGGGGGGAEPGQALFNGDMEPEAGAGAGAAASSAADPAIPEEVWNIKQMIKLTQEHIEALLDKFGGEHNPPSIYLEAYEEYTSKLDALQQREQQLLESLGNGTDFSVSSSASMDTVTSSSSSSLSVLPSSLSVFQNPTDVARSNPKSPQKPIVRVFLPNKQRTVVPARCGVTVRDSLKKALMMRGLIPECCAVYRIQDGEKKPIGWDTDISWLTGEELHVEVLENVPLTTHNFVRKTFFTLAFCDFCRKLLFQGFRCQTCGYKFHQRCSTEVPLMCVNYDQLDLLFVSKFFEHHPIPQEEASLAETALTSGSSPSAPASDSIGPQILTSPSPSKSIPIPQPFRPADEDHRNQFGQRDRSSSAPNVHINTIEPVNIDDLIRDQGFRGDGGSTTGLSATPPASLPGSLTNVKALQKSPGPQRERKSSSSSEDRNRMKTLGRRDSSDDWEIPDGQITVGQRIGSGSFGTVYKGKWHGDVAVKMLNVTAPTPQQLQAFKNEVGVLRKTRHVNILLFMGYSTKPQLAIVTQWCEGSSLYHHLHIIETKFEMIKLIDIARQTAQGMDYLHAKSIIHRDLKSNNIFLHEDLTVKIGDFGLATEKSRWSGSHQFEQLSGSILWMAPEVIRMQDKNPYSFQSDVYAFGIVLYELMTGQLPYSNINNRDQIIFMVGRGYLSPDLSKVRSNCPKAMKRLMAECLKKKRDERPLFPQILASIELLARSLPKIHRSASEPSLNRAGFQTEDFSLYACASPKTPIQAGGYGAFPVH

SMILES | pIC50 [1] | further results
CN(C)/C=C/NC(=O)c1oc2cnccc2c1Nc1ccc2c(O)cccc2c1 | 8.30 | 
c1cnc(-c2oc3cnccc3c2Nc2ccc3c(c2)Cc2c[nH]nc2-3)nc1 | 8.40 | AUC(0-inf) [2]: 10400 ng·h/mL; Papp [3]: > 8 ×10⁻⁶ cm/s; Cmax [4]: 2220 ng/mL
CCOC(=O)c1oc2cnccc2c1Nc1ccc2c(O)c(F)ccc2c1 | 8.52 | 
CCOC(=O)c1oc2cnccc2c1Nc1ccc2c(c1)CCC2=O | 7.03 | 
Clc1ccc(Nc2c(-c3ncccn3)oc3cnccc23)c2cn[nH]c12 | 8.38 | Papp [3]: < 2 ×10⁻⁶ cm/s
CCOC(=O)c1oc2cnccc2c1Nc1ccc(Cl)c(O)c1 | 8.64 | 
O=C(Nc1ncccn1)c1oc2cnccc2c1Nc1ccc(Cl)c(O)c1 | 8.80 | 
CC(C)NC(=O)c1oc2cnccc2c1Nc1ccc(Cl)c2[nH]ncc12 | 8.57 | 
CC(C)NC(=O)c1oc2cnccc2c1Nc1ccc2c(O)cccc2c1 | 8.85 | 
Oc1cccc2cc(Nc3c(-c4ncccn4)oc4cnccc34)ccc12 | 9.00 | 
CCOC(=O)c1oc2cnccc2c1Nc1cnc2ccccc2c1 | 7.52 | 
CN1CCN(Cc2cnc(-c3oc4cnccc4c3Nc3ccc4c(O)cccc4c3)nc2)CC1 | 8.70 | 
Cc1cc(Nc2c(-c3ncccn3)oc3cnccc23)c2cn[nH]c2c1Cl | 9.52 | 
c1cnc(-c2oc3cnccc3c2Nc2cccc3[nH]ncc23)nc1 | 7.85 | 
CCOC(=O)c1oc2cnccc2c1Nc1ccc2ccccc2c1 | 6.75 | 
CN/C=C/NC(=O)c1oc2cnccc2c1Nc1ccc2c(c1)Cc1c[nH]nc1-2 | 7.37 | 

SMILES | pIC50 [1] | further results
CC(C)NC(=O)c1oc2cnccc2c1Nc1ccc2c(c1)CN/C2=N\O | 8.28 | 
Fc1ccc(Nc2c(-c3ncccn3)oc3cnccc23)c2cn[nH]c12 | 8.70 | 
CCOC(=O)c1oc2cnccc2c1Nc1ccc2c(N)cccc2c1 | 7.28 | 
NCCCc1n[nH]c2c(Cl)ccc(Nc3c(-c4ncccn4)oc4cnccc34)c12 | 8.37 | 
CC(C)NC(=O)c1oc2cnccc2c1Nc1ccc2c(c1)Cc1c[nH]nc1-2 | 7.42 | 
CCc1n[nH]c2c(Cl)ccc(Nc3c(-c4ncccn4)oc4cnccc34)c12 | 9.10 | 
CCOC(=O)c1oc2cnccc2c1Nc1ccc2c(c1)CC/C2=N/O | > 8.70 | 
O/N=C1\NCc2cc(Nc3c(-c4ncccn4)oc4cnccc34)ccc21 | 9.30 | 
O=C1CCc2cc(Nc3c(-c4ncccn4)oc4cnccc34)ccc21 | 7.80 | 
CCOC(=O)c1oc2cnccc2c1Nc1ccc2c(O)cccc2c1 | 8.96 | 
Cc1ccc(Nc2c(-c3ncccn3)oc3cnccc23)c2cn[nH]c12 | 8.62 | 
CC(C)NC(=O)c1oc2cnccc2c1Nc1ccc(Cl)c(O)c1 | 8.40 | 
Clc1ccc2[nH]ncc2c1Nc1c(-c2ncccn2)oc2cnccc12 | 6.62 | AUC(0-inf) [2]: 17000 ng·h/mL; Papp [3]: 2 ×10⁻⁶ cm/s; Cmax [4]: 3730 ng/mL
Clc1cc(Nc2c(-c3ncccn3)oc3cnccc23)c2cn[nH]c2c1 | 8.24 | 
OCCCc1n[nH]c2c(Cl)ccc(Nc3c(-c4ncccn4)oc4cnccc34)c12 | 9.10 | 
